Measurements: patent publication US20240124496A1, “BORONIC ACID COMPOUND AND METHOD FOR PRODUCING SAME” (OSAKA UNIVERSITY, priority 2021, published 2024)

What was measured:
[1] = stability after labeling; assay type: physicochemical; conditions: crude product solution with ascorbic acid added
Method: 3-(4,4,5,5-Tetramethyl-1,3,2-dioxaboran-2-yl)-α-methyl-L-tyrosine hydrochloride (Bpin-AMT) was dissolved in water to prepare a 1 w/v % aqueous solution. This aqueous solution (0.1 mL) was put in a microtube, and then aqueous [^131I]sodium iodide solution (0.03 mL, 1 MBq, Institute of Isotopes Co., Ltd.) and 0.4 w/v% aqueous N-bromosuccinimide (NBS) solution (0.03 mL) were added thereto, and the mixture was reacted at room temperature for 30 min. Then, to the reaction solution was added 3 w/v% aqueous ascorbic acid solution (0.03 mL) to stop the reaction to give a crude product solution of 3-iodo(^131I)-α-methyl-L-tyrosine (^131I-IAMT).
This crude product solution (1 μL) was analyzed by thin-layer chromatograph method (TLC). The sample was spotted on a thin-layer plate (silica gel G60), and a mixed solvent of acetonitrile/water (2/1) was used as a developing solvent. The thin-layer plate was exposed to an imaging plate for about 15 min, and then analyzed by a bioimage analyzer (Typhoon FLT7000, GE Healthcare, Chicago). 3-Iodo(^131I)-α-methyl-L-tyrosine was detected at Rf 0.72, and the radiochemical yield (RCY) was 86.1%. This compound was stable up to 7 days after labeling.

[2] = biological target: T1, amino acid transporter (LAT1) (Homo sapiens, UniProt Q01650); assay: ^211At-AAMT intracellular uptake in MIA PaCa-2 cells; assay type: cell-based; conditions: 30 minutes; for inhibition of ^211At-AAMT intracellular uptake: excess amount (1 mM) added, ^211At-AAMT synthesized by the method of the present invention
T1 construct: endogenous in cells; host or cells: MIA PaCa-2 (human pancreatic cancer cells)
Method: Human pancreatic cancer cells MIA PaCa-2 were seeded in a 24-well culture plate at a concentration of 1×10^5 cells/mL. After 2 days, the medium was removed, the cells were washed with PBS (−), and the medium was replaced with HEPES Buffer (amino acid free). To each well, the ^211At-AAMT synthesized by the method of the present invention or the conventional mercury method was added. In addition, an excess amount (1 mM) of BCH (LAT1 inhibitor) or unlabeled (AMT) was added. After culturing the cells for 30 minutes, the cells were washed with PBS (−), and lysed with 0.1 N NaOH, and the radioactivity of the lysate was measured. The ^211At-AAMT intracellular uptake (radioactivity count/protein amount) was calculated by correcting the radioactivity per protein amount. The results are shown in FIG. 6 (FIG. 6a: the method of the present invention, FIG. 6b: the conventional mercury method). In FIG. 6, CTL is control, BCH is 2-aminobicyclo[2,2,1]heptane-2-carboxylic acid, and AMT is α-methyltyrosine.

[3] = tested on: HEK293 cells; assay: cell viability after addition of ^211At-AAMT; assay type: cell-based; conditions: 0.00-5.00 kBq per well, 24 hours, FIG. 7
Method: HEK293 cells were seeded in a 24-well culture plate at a concentration of 1×10^5 cells/mL. After 2 days, the medium was removed, the cells were washed with PBS (−), and the medium was replaced with HEPES Buffer (amino acid free). To each well, 0.00-5.00 kBq of the ^211At-AAMT synthesized by the method of the present invention or the conventional mercury method was added. After culturing the cells for 24 hours, the cell viability was examined. […] Industrial Applicability

[4] = produced by the mercury method; Non-Patent Document 1; cited from earlier work

T1 sequence (Q01650 whole entry): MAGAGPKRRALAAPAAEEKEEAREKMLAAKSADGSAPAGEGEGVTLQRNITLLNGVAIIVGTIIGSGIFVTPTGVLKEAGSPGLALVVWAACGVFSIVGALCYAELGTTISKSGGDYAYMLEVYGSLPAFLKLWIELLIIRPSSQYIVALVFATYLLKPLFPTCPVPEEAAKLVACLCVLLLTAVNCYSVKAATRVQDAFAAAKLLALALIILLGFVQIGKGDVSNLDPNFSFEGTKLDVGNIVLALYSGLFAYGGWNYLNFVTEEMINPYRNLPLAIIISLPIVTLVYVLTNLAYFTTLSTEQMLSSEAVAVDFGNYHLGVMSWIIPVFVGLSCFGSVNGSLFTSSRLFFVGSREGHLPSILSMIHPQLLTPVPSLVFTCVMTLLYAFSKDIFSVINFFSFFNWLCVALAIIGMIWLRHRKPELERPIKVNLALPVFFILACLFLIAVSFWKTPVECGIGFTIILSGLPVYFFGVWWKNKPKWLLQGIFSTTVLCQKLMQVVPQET
T1 sequence (P08195 102-630 partner): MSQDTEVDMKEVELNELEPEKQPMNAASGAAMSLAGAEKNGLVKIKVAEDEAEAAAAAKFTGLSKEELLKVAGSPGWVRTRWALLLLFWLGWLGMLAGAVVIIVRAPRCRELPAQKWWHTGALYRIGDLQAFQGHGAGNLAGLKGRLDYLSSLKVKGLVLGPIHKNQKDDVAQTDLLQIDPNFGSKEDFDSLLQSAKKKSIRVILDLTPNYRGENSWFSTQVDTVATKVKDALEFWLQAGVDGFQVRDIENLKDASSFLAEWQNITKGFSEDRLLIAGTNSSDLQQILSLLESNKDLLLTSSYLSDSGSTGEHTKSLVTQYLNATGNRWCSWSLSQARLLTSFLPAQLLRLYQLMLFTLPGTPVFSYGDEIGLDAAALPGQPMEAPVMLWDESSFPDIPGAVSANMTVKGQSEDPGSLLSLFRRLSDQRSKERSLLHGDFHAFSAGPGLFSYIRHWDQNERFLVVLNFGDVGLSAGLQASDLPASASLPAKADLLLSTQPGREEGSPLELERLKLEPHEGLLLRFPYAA

SMILES: C[C@](N)(Cc1ccc(O)c([131I])c1)C(=O)O [3-Iodo(^131I)-α-methyl-L-tyrosine, 3-iodo(^131I)-α-methyl-L-tyrosine]
- time stable after labeling [1]: up to 7 days

SMILES: C[C@](N)(Cc1ccc(O)cc1)C(=O)O [AMT, α-methyltyrosine, reference compound]
- inhibition of ^211At-AAMT intracellular uptake [2]: significantly inhibited

SMILES: NC1(C(=O)O)CC2CCC1C2 (centres unmarked) [BCH, 2-aminobicyclo[2,2,1]heptane-2-carboxylic acid, reference compound]
- inhibition of ^211At-AAMT intracellular uptake [2]: significantly inhibited

SMILES: C[C@](N)(Cc1ccc(O)c([211At])c1)C(=O)O [^211At-AAMT, 3-astato (^211At)-α-methyl-L-tyrosine]
- ^211At-AAMT intracellular uptake and its inhibition by BCH and AMT, compared with the method of the present invention ([2]; synthesized by the conventional mercury method, FIG. 6b): consistent
- ^211At-AAMT intracellular uptake (radioactivity count/protein amount) ([2]; synthesized by the method of the present invention, control (CTL), FIG. 6a): strongly taken up
- cell viability, compared with the method of the present invention ([3]; synthesized by the conventional mercury method): consistent
- cell viability ([3]; synthesized by the method of the present invention): decreased in a dose-dependent manner
- stability of the produced ^211At-AAMT [4]: unstable
